Measurements reported in PubChem BioAssay (NCI).
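Five concentrations, 48 hours, 96-well plates. At the GI50, growth is halved. TGI: concentration producing complete growth inhibition.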

Experiments:
Test in all cases: DTP human tumour cell line panel, 48 h
786-0 renal = system: 786-0 renal
ACHN renal = system: ACHN renal
COLO 205 colon = system: COLO 205 colon
HCT-15 colon = system: HCT-15 colon
RPMI-8226 leukemia = system: RPMI-8226 leukemia
RXF 393 renal = system: RXF 393 renal
TK-10 renal = system: TK-10 renal
UO-31 renal = system: UO-31 renal
MDA-MB-231 breast = system: MDA-MB-231 breast
SK-OV-3 ovarian = system: SK-OV-3 ovarian

SMILES	TGI (786-0 renal) [µM]	TGI (ACHN renal) [µM]	TGI (COLO 205 colon) [µM]	TGI (HCT-15 colon) [µM]	TGI (RPMI-8226 leukemia) [µM]	TGI (RXF 393 renal) [µM]	TGI (TK-10 renal) [µM]	TGI (UO-31 renal) [µM]	TGI (MDA-MB-231 breast) [µM]	TGI (SK-OV-3 ovarian) [µM]	GI50 (786-0 renal) [µM]	GI50 (ACHN renal) [µM]	GI50 (COLO 205 colon) [µM]	GI50 (HCT-15 colon) [µM]	GI50 (MDA-MB-231 breast) [µM]	GI50 (RPMI-8226 leukemia) [µM]	GI50 (SK-OV-3 ovarian) [µM]	GI50 (TK-10 renal) [µM]	GI50 (UO-31 renal) [µM]	GI50 (RXF 393 renal) [µM]
COC(=O)C1=C(C(=O)OC)C2(C)Nc3ccccc3C2=C(c2ccccc2)C1 (centres undefined)	81.4	62.3	34	51.8	29.6	54.3	69.9	38.2												
CC1OC(OC2C(OC3CCC4(C)C(CCC5(C)C4CC=C4C6CC(C)(C)CCC6(C(=O)O)CCC45C)C3(C)CO)OCC(O)C2O)C(O)C(O)C1O (centres undefined)	> 100	37.5	44.4	42.1		11.6	40.8	13.1	35.4	33.5										
Oc1cc2ccccc2c(-c2c(O)c(O)cc3ccccc23)c1O	1.07	21.1	8.95	14.8	> 28.2		30.9	6.41	34.2	17.3	0.201	0.571	2.06	0.323	4.64	0.743	1.68	1.38	0.512	
CC#CC1C2CCCC1(CSc1ccccc1)NC(=O)O2 (centres undefined)	> 100	> 100	> 100	> 100	> 100	> 100	> 100	> 100		> 100										
CC(C)NC(=O)CCN(C(=O)O)S(=O)(=O)c1ccc(NC(=O)c2ccccc2)cc1	> 100	> 100	> 58.5	> 59.8	> 71.5	> 100	> 100	> 100		> 100										
O=C1c2cccc(NCCN=Cc3ccccc3O)c2C(=O)c2c(NCCN=Cc3ccccc3O)cccc21	3.76	8.82	2.18	12	4.29		5.52	3.06	2.28	4.99	0.865	1.32	0.46	2.23	0.489	0.878	1.5	1.71	0.596	
COc1cc([N+](=O)[O-])c(OC)cc1-c1nc2sc(Cl)cn2c1/C=N/NC1=NCCN1	1.13	2.6	3.7	2.99			3.36		3.18	3.48	0.487	1.32	1.33	1.64	1.49		1.88	1.89	0.966	
CC(=O)[CH-]C(=O)c1ccccc1.CC(=O)[CH-]C(=O)c1ccccc1.C[C@]12CCC(=O)C=C1CC[C@@H]1C2CC[C@@]2(C)C1CC[C@@H]2[O-].C[C@]12CCC(=O)C=C1CC[C@@H]1C2CC[C@@]2(C)C1CC[C@@H]2[O-].Cl.[Ti+4] (some centres undefined)	26.3	49.5	> 100	43	> 100	31.9	> 100	52.5		56.9	13.5	17.2	37	15.2		18.8	27	29.4	16.5	16.2
